What all share (format): functional, Urine
Assay [1] concerns Rattus norvegicus. Put plainly: Antimineralocorticoid activity in adrenalectomized rat assessed as urinary log (Na X 10)/K at 2.4 mg, sc administered post deoxycorticosterone acetate treatment relative to control.
Assay [2] relates to Rattus norvegicus. Put plainly: Antimineralocorticoid activity in adrenalectomized rat assessed as urinary log (Na X 10)/K at 2.4 mg, sc administered post deoxycorticosterone acetate treatment relative to spironolactone.
In assay [3] the test system is Rattus norvegicus. Put plainly: Antimineralocorticoid activity in sc dosed adrenalectomized rat assessed as urinary log (Na X 10)/K administered post deoxycorticosterone acetate treatment relative to spironolactone.
Assay [4] concerns Rattus norvegicus. Put plainly: Antimineralocorticoid activity in po dosed adrenalectomized rat assessed as urinary log (Na X 10)/K administered post deoxycorticosterone acetate treatment relative to spironolactone.

Structures are written as SMILES.

For `C[C@]12CCC(=O)C=C1C=C[C@H]1[C@@H]3[C@@H](O)C[C@@]4(CCC(=O)O4)[C@@]3(C)CC[C@@H]12`, the T/C in the assay with Rattus norvegicus [1] is 0.62.

Regarding `CC(=O)O[C@H]1C[C@@]2(CCC(=O)O2)[C@@]2(C)CC[C@H]3[C@@H](C=CC4=CC(=O)CC[C@@]43C)[C@H]12`, the T/C in the assay on Rattus norvegicus [1] was 0.77.

For `C[C@]12CCC(=O)C=C1C=C[C@@H]1[C@@H]2CC[C@@]2(C)[C@H]1C(=O)C[C@@]21CCC(=O)O1`, the Activity with Rattus norvegicus [2] is 15%. In addition, the T/C in the assay with Rattus norvegicus [1] is 1.01.

With `C[C@]12CCC(=O)C=C1C=C[C@@H]1[C@@H]2CC[C@@]2(C)[C@H]1C[C@H](O)[C@@]21CCC(=O)O1`, in the assay with Rattus norvegicus [1], the T/C turned out to be 0.84.

Take `C[C@]12CCC(=O)C=C1C=C[C@H]1C3=CC[C@@]4(CCC(=O)O4)[C@@]3(C)CC[C@@H]12`: the T/C in the assay on Rattus norvegicus [1] is on record as 0.67.

Consider `C[C@]12CCC(=O)C=C1C=CC1=C3CC[C@@]4(CCC(=O)O4)[C@@]3(C)CC[C@@H]12`, for which, in the assay with Rattus norvegicus [1], the T/C worked out at 0.82.

On to `C[C@]12CCC(=O)C=C1C=C[C@@H]1[C@@H]2CC[C@@]2(C)[C@H]1CC[C@@]21CCC(=O)O1` [CANRENONE], for which the values for the Activity with Rattus norvegicus [3] and with Rattus norvegicus [4] were 38% and 35%, respectively.

(Values after ChEMBL document CHEMBL3243976, “Ring D oxygenated Spirolactones. Characterization of human metabolic product of spironolactone” (1977).)
